By pKa is commonly meant the negative logarithm of the acid dissociation constant. In general, solubility refers to how much of the substance goes into solution per volume. As a reminder, the IC50 is the concentration needed to halve the response being measured.

Values after ≈ are worked out from the molar mass of the structure shown. Active and inactive are the calls of the source. The calls are words filed in the database; no cut-off is given here. Where only a bound is given, the exact number is not on record here.

Results on two molecules are retold here after ChEMBL document CHEMBL1142863, “A potent, covalent inhibitor of orotidine 5'-monophosphate decarboxylase with antimalarial activity” (J Med Chem, 2007).

Data set [1] concerns the target Orotidine 5'-phosphate decarboxylase (Methanobacterium thermoautotrophicum) (UniProt O26232). Kind of data set: Inhibition of Methanobacterium thermoautotrophicum ODCase at 250 uM in less than 30 mins. The note with it: Methanothermobacter thermautotrophicus.
The target of data set [2] is T1, Orotidine phosphate decarboxylase (Plasmodium falciparum) (UniProt Q8T6J6).
T1 sequence (whole entry): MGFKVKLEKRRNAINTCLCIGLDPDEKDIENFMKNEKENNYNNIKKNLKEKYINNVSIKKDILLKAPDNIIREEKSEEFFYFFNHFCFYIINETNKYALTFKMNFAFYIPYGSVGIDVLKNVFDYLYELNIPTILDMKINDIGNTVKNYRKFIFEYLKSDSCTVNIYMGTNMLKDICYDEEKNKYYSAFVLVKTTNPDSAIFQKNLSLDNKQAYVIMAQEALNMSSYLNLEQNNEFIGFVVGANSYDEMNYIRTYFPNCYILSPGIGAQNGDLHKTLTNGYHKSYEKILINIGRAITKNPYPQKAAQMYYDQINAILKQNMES
Kind of data set: Inhibition of Plasmodium falciparum ODCase.

In data set [3] the target is Orotidine 5'-phosphate decarboxylase (Methanobacterium thermoautotrophicum) (UniProt O26232). Kind of data set: Inhibition of Methanobacterium thermoautotrophicum ODCase at 50 uM after 8 hrs. Also on record: scale not given: the % may be the effect or the level left. The note with it: Methanothermobacter thermautotrophicus.
Data set [4] is described as follows: Dissociation constant, pKa of the compound. Format: physicochemical.
A short description of data set [5]: Solubility in distilled water. Format: physicochemical.
In another data set the test system is Plasmodium falciparum. Kind of data set: Antiparasitic activity against chloroquine-resistant Plasmodium falciparum ItG after 48 hrs by SYBR-Green assay. Format: functional, organism-based.

Sequence of Orotidine 5'-phosphate decarboxylase (Methanobacterium thermoautotrophicum) (O26232 whole entry, looked up): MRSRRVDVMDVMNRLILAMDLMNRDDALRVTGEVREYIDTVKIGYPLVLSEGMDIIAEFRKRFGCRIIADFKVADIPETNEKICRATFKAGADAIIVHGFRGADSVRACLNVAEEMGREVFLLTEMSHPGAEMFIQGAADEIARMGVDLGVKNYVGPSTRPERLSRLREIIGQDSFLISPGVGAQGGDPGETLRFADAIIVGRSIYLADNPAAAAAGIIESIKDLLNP

Take `O=c1cc(I)n([C@@H]2O[C@H](COP(=O)(O)O)[C@@H](O)[C@H]2O)c(=O)[nH]1`: the result in data set [1] and in data set [2] was Active. The Activity in data set [3] was over 60%.
`O=c1cc(I)n([C@@H]2O[C@H](CO)[C@@H](O)[C@H]2O)c(=O)[nH]1`: in data set [4], the pKa turned out to be 8.42. In addition, the solubility in data set [5] came out at 4320 µg/mL (≈ 11.7 mM). Moreover, in the data set on Plasmodium falciparum, the concentration for half-maximal inhibition (IC50) came to 4.4 µM.
